This is an account of results in ChEMBL document CHEMBL1150504, “Pharmacological evaluation of combined PGI2 agonists/thromboxane synthase inhibitors. I” (Bioorg Med Chem Lett, 1995).

SMILES strings stand for the structures.

In the first assay the target is T1, Thromboxane-A synthase (Homo sapiens, UniProt P24557).
T1 sequence (P24557 whole entry): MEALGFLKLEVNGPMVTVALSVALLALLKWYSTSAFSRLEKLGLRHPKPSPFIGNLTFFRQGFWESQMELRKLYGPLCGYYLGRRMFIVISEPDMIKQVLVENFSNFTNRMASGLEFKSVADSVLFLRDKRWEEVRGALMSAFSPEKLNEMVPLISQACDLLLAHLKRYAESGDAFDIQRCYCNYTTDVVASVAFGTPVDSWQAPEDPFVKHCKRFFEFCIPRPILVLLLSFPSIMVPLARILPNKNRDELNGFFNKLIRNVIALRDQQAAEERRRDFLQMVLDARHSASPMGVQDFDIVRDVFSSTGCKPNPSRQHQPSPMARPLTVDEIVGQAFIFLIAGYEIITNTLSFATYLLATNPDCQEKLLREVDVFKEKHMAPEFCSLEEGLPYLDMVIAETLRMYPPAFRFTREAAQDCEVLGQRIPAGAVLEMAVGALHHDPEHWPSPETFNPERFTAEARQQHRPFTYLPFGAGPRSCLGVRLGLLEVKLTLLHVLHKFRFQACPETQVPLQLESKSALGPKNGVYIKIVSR
The assay can be described thus: Inhibitory activity against Thromboxane A2 synthase in human platelet microsome.
One may read the IC50 as the midpoint of a concentration-inhibition curve. High values mean weaker potency in that assay, low ones greater potency in that assay. With `O=C(O)COc1cccc2c1CCCC2CCC(=O)NN(c1ccccc1)c1ccccc1` (stereo not drawn), the IC50 entry is reported as “Not Active”. The same measure, in the same setting: to `O=C(O)COc1cccc2c1CCC(Cn1cc(C(c3ccccc3)c3ccccc3)cn1)C2` (stereo not drawn) belongs “Not Active”; to `CCC/C(CC1CCc2c(cccc2OCC(=O)O)C1)=N\OC(c1ccccc1)c1ccccc1` (stereo not drawn) [AP-227], “Not Active”.

The species entered for a further assay is Homo sapiens. The assay is described as follows: PGI-2 agonistic activity by measuring inhibition of 4 uM ADP-induced human platelet aggregation; Inactive. The class given is functional.
As for `C/C(=C\c1ccc(Cc2cccnc2)cc1)C(=O)[O-].[Na+]` [ONO-1581], the IC50 entry is “Not Active”. In the case of `O=C(O)/C=C/c1ccc(Cn2ccnc2)cc1` [OZAGREL], the IC50 entry is listed as “Not Active”.

For another assay, the species on record is Homo sapiens. The assay can be described thus: PGI-2 agonistic activity by measuring inhibition of 4 uM ADP-induced human platelet aggregation. The class given is functional.
As to `O=C(O)COc1cccc2c1CCCC2CCC(=O)NN(c1ccccc1)c1cccnc1` (stereo not drawn), the IC50 was 440 nM. That is a sub-micromolar value. With `O=C(O)COc1cccc2c1CCC(Cn1cc(C(c3ccccc3)c3ccccc3)cn1)C2` (stereo not drawn), the IC50 came to 130 nM. On the same count and under the same terms, to `O=C(O)COc1cccc2c1CCCC2CCO/N=C(\c1ccccc1)c1cccnc1` (stereo not drawn) belongs 240 nM; to `C/C(CC1CCc2c(cccc2OCC(=O)O)C1)=N\OC(c1ccccc1)c1cccnc1` (stereo not drawn), 1400 nM. As for `O=C(O)COc1cccc2c1CCC(Cn1cc(C(c3ccccc3)c3cccnc3)cn1)C2` (stereo not drawn), the IC50 is 150 nM.

For the molecule `CC#CCC(C)[C@H](O)/C=C/[C@@H]1[C@H]2C/C(=C/CCCC(=O)O)C[C@H]2C[C@H]1O` (stereo partly drawn) [ILOPROST], the IC50 was 1.4 nM.

In turn, `C/C(CC1CCc2c(cccc2OCC(=O)O)C1)=N\OC(c1ccccc1)c1ccccn1` (stereo not drawn) registered an IC50 of 570 nM.

`C/C(CC1CCc2c(cccc2OCC(=O)O)C1)=N\OC(c1ccccc1)c1ccccc1` (stereo not drawn) registered an IC50 of 230 nM. Regarding `C/C(CC1CCc2c(cccc2OCC(=O)O)C1)=N\OC(c1ccccc1)c1ccncc1` (stereo not drawn), the IC50 was determined as 480 nM. Same read-out and setting: as for `CCC/C(CC1CCc2c(cccc2OCC(=O)O)C1)=N\OC(c1ccccc1)c1cccnc1` (stereo not drawn), the figure is 320 nM.

The target of another assay is T1, Thromboxane-A synthase. The assay can be described thus: Inhibitory activity against Thromboxane A2 synthase in human platelet microsome; Inactive.
Take `O=C(O)COc1cccc2c1CCCC2CCON=C(c1ccccc1)c1ccccc1` (stereo not drawn): the IC50 entry is “Not Active”. With `C/C(CC1CCc2c(cccc2OCC(=O)O)C1)=N\OC(c1ccccc1)c1ccccc1` (stereo not drawn), the IC50 entry is listed as “Not Active”.

In another assay the target is T1, Thromboxane-A synthase. The assay can be described thus: Inhibitory activity against Thromboxane A2 synthase in human platelet microsome; inactive.
For the molecule `CC#CCC(C)[C@H](O)/C=C/[C@@H]1[C@H]2C/C(=C/CCCC(=O)O)C[C@H]2C[C@H]1O` (stereo partly drawn) [ILOPROST], the IC50 entry was “Not Active”.
